According to patent US10903496B2, “Rigid naphthalenediimide triangle structures” (Northwestern University, priority 2015, dated 2021):
Values after ≈ are worked out from the molar mass of the structure shown. Read-outs that look alike come from different tables or passages of the source.

Experiments:
[1] = Solubility in non-aqueous electrolyte solvents; type: physicochemical; details: for solubility in non-aqueous electrolyte solvents (in words): neutral state
[2] = Thermal gravimetric analysis (thermal stability); type: physicochemical
Description: Thermal stabilities were analyzed using a PerkinElmer Pyris Diamond TG/DTA analyzer. The temperature was increased from room temperature to 600° C. at a heating rate of 10° C. min^−1 under N2 atmosphere. […] The greater thermal stability of (−)-NDI-Δ is attributed to its higher molecular weight and more rigid structure compared to NDI-Ref.

Row | solubility in non-aqueous electrolyte solvents (in words) [1] | thermal stability: temperature up to which stable / at which decomposition starts [2] [°C] | thermal stability: temperature up to which stable / at which decomposition starts ([2]; TGA, room temperature to 600° C. at 10° C. min^−1 under N2, one-step decomposition) [°C] | solubility in the electrolyte solvents ([1]; electrolyte solvents) [mg/mL] | Structure (SMILES)
1 | only sparingly soluble |  |  |  | O=C1c2ccc3c4c5ccc(c24)C(=O)N1C1CCCC[C@@H]1N1C(=O)c2ccc4c6c(ccc(c26)C1=O)C(=O)N(C4=O)[C@H]1CCCC[C@@H]1N1C(=O)c2ccc4c6c(ccc(c26)C1=O)C(=O)N(C4=O)C1CCCC[C@@H]1N(C3=O)C5=O (single isomer, unassigned; (+)) [(+)-NDI-Δ]
2 | only sparingly soluble | 400 |  |  | O=C1c2ccc3c4c5ccc(c24)C(=O)N1C1CCCC[C@H]1N1C(=O)c2ccc4c6c(ccc(c26)C1=O)C(=O)N(C4=O)C1CCCC[C@H]1N1C(=O)c2ccc4c6c(ccc(c26)C1=O)C(=O)N(C4=O)C1CCCC[C@H]1N(C3=O)C5=O (single isomer, unassigned; (-)) [(−)-NDI-Δ]
3 | considerably more soluble |  | 250 | ~0.1 (≈ 232 µM) | O=C1c2ccc3c4c(ccc(c24)C(=O)N1C1CCCCC1)C(=O)N(C1CCCCC1)C3=O [NDI-Ref]
